The test system of data set [1] is A375TK (transduced with LNStk vector) melanoma cells. The data set can be described thus: in vitro clonogenic assay of radiosensitivity, HS-tk transduced cells. The class given is cell-based, human. The note with it: for survival (figure legend): cells transformed with the STK vector, drug and radiation. The source says:
(§1) For this example, a vector, termed LNSTK was kindly provided by F. Moolten which contained the HS-tk gene driven by the SV40 early promoter. Other transformation vectors containing the HS-tk retroviral vector such as the LTKOSN.2 vector by the Human Gene Therapy Research Institute (Des Moines, Iowa) are commercially available. Another such vector is the GITkSvNa vector by Genetic Therapy Inc., Gaithersburg, Md. A human A375 melanoma cell line was used because of its ease of growth and rapid colony formation in a clonogenic assay. The survival of A375NV (no vector) and A375TK (transduced with LNStk vector) after 30 GY of gamma-radiation with 0,1, or 10 µg/ml IdC is shown in FIG. 2.
(§2) […] cells were plated in a 100 cm^2 tissue culture dish in free media. The next day drug was added in the appropriate concentration. 48 hours later the cells were irradiated with 30 GY from a 250 KV X-ray machine as a single dose. The cells were then trypsinized and replated at between 2.5×10^2 and 1×10^6 cells per plate in triplicate for each data point. After twelve days the cells were fixed, stained and macroscopic colonies containing […] were counted. Measurements in the graph were corrected for plating efficiency. […] Irradiated A375 NV preincubated with 0,1 or 10 μg/ml of IdC had 18.6, 19.3 and 18.3 percent survival respectively. Irradiated A375 tk cells preincubated with 0,1, or 10 μg/ml of IdC had 15.7, 9.9 and 4.4 percent survival respectively.
(§3) In FIG. 3 another experiment is shown, design similar to Example 1. This experiment compared radio sensitivity of A375 NV and A375 tk cells after preincubation with 10 μg/ml of BrdC for 48 hours before X-ray exposure. […] Survival percentages for cells incubated with 10 μg of BrdC and then irradiated with 30 Gy were divided by the survival fraction of cells incubated with 10 μg/ml of BrdC and then mock irradiated.

The test system of data set [2] is mixture of 50% A375 NV and 50% A375 HS-tk cells. The data set can be described thus: clonogenic assay of bystander effect, mixed cells at high density. The note with it: 10 μg/ml, 30 Gy. The class given is cell-based, human. On the procedure: Without wishing to be bound by any theory it is hypothesized that HSV-tk transduced tumor cells are able to sensitize non transduced tumor cells in their vicinity through a bystander effect via metabolic cooperation. Specifically, cells that are not transduced with HS-tk gene can also be sensitized to radiation. […] These cells were plated at a density of 3×10^6 cells per 100 cm^2 tissue culture dish the afternoon prior to adding 10 μg/ml BrdC to the media. […] In contrast the experimentally obtained survival for this mixture of cells when plated together at high density was only 6.2%.

Data set [3] deals with Herpes pyrimidine nucleoside kinase (HSV-tk) (Human herpesvirus 1, UniProt P0DTH5). The settings on record: with respect to Herpes pyrimidine nucleoside kinase / HSV-tk; cited from earlier work.
Data set [4] addresses T1, Mammalian thymidine kinase (Homo sapiens, UniProt P04183).
T1 sequence (P04183 1-234): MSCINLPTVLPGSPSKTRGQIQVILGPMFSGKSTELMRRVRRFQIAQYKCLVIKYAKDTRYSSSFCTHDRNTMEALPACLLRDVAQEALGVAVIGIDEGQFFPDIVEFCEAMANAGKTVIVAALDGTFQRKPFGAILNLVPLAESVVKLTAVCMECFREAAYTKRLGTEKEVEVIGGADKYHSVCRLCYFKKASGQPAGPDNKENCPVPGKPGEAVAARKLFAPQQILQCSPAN
The note with it: cited from earlier work.

For data set [5], the target named is mammalian deoxycytidine kinase (Homo sapiens, UniProt P27707). The settings on record: with respect to mammalian deoxycytidine kinase; cited from earlier work.
The subject of data set [6] is A375NV (no vector) melanoma cells. The data set can be described thus: in vitro clonogenic assay of radiosensitivity, non-transduced cells. It counts as cell-based, human.
Text: as §1, §2, §3

Data set [7] has as its system mammalian cells. The settings on record: cited from earlier work.
Where [8] appears, read: irradiated (30 Gy) A375 tk preincubated with 10 μg/ml, before adjustment.
Setting [9] is: non irradiated A375 tk, 10 μg/ml drug 48 h, compared to non-irradiated control cells not preincubated with drug.

Chain of Herpes pyrimidine nucleoside kinase (HSV-tk) (P0DTH5 whole entry): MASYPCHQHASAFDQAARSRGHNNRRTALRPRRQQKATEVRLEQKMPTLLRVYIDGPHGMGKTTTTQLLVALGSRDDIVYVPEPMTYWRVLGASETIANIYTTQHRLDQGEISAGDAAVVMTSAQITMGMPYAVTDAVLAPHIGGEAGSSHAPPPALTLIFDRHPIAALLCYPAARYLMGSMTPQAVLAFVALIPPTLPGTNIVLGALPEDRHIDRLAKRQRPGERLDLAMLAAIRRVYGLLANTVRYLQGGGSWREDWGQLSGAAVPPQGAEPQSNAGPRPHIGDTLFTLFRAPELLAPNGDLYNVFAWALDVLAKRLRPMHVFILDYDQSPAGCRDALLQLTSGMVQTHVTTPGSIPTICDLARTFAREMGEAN
Chain of mammalian deoxycytidine kinase (P27707 whole entry): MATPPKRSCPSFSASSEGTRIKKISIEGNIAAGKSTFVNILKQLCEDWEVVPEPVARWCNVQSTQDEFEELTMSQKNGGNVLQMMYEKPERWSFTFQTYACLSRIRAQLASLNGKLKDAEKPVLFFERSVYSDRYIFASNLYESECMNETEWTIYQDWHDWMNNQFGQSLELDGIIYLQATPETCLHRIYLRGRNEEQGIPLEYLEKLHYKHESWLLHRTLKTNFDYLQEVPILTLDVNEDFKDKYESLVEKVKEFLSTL

Consider `Nc1nc(=O)n([C@H]2C[C@H](O)[C@@H](CO)O2)cc1Br` [BrdC, 5-bromo-2′-deoxycytidine], for which the survival in data set [1] (100% A375 tk plated at 3×10^6 cells per dish (about 90% confluent), 10 μg/ml, 30 Gy) came out at 3.5%; in data set [1] (setting [9]) it was 33%; in data set [6] (100% A375 NV plated at 3×10^6 cells per dish (about 90% confluent), 10 μg/ml, 30 Gy), 13.1%. Further, the “adjusted survival (irradiated survival divided by nonirradiated surviving fraction)” value in data set [1] (A375 tk, 10 μg/ml, 30 Gy) is recorded as 6.9%; in data set [6] (A375 NV, 10 μg/ml, 30 Gy), 9%. Moreover, the “survival (figure legend)” value in data set [1] is reported as “less than 10%”. Also, the percent survival in data set [1] (setting [8]) is listed as 2.3%. Further, in data set [2] (50% A375 tk and 50% A375 NV plated together at high density), the “experimentally obtained survival of the mixture” value is on record as 6.2%. Further, in data set [2] (50% A375 tk and 50% A375 NV, theoretical), the “expected survival of the mixture (half of tk plus half of NV survival)” value worked out at 8.3%. For the same molecule, the Km in data set [3] is 2 µM; in data set [5], 2100 µM. Further, the “phosphorylation by mammalian thymidine kinase” value in data set [4] is reported as “cannot phosphorylate”.

In the case of `Nc1ccn([C@H]2C[C@H](O)[C@@H](CO)O2)c(=O)n1` [Deoxycytidine, deoxycytidine, reference compound], in data set [3], the Km is 500 µM.

`Nc1nc(=O)n([C@H]2C[C@H](O)[C@@H](CO)O2)cc1I` [IdC, 5-iodo-2′-deoxycytidine]: the entries for the “survival (figure legend)” value in data set [1] and in data set [6] (nontransformed cells treated with radiation) were “less than 10%” and “approximately 50%”, respectively. For the same molecule, the percent survival in data set [1] (irradiated (30 Gy) A375 tk preincubated with 1 μg/ml) is recorded as 9.9%; in data set [1] (setting [8]), 4.4%; in data set [6] (irradiated (30 Gy) A375 NV preincubated with 1 μg/ml), 19.3%; in data set [6] (irradiated (30 Gy) A375 NV preincubated with 10 μg/ml), 18.3%. Also, the survival in data set [1] (setting [9]) is given as 54%; in data set [6] (non irradiated A375 NV, 10 μg/ml drug 48 h, compared to non-irradiated control cells not preincubated with drug) it was 73%. Besides, the Km is 2 µM in data set [3] and 4000 µM in data set [5]. Moreover, the “phosphorylation by mammalian thymidine kinase” value in data set [4] is listed as “cannot phosphorylate”. Moreover, the “radiation potentiation in the absence of the HS-tk gene” value in data set [6] (IdC 1 or 10 μg/ml, 30 Gy) is on record as “no degree radiation potentiation was seen”.

Take `O=C1NC(O)CCN1[C@@H]1O[C@H](CO)[C@@H](O)[C@H]1O` (some centres unmarked) [Tetrahydrouridine, tetrahydrouridine]: the “safety in mammalian cells” value in data set [7] was “safe and non toxic”.

Values taken from patent publication US6342217B1, “Radiation enhanced gene therapy for tumors expressing a gene for a viral pyrimidine kinase in the presence of a 5′-halogenated pyrimidine” (Human Gene Therapy Research Institute, priority 1995, dated 2002).
